# Measured values reported in patent US20080226596A1, “Therapeutic compositions and methods useful in treating hepatitis” (priority 2006, published 2008).
# Legend:
# DU145R cells = assay: DU145R cell growth, MTT assay; type: cell-based, human; details: day 6, compared with parental DU145
# Procedure: DU145 cells were cultured in the presence of sodium stibogluconate (100 µg/ml) in 48 well plates for 3 weeks. Cells from a well containing a single colony were transferred to flasks, cultured in sodium stibogluconate-free medium for 3 weeks and used as DU145R cells for further characterization. Growth of DU145R cells in the absence or presence of sodium stibogluconate in day 6 culture was determined by MTT assays. cDNAs of the coding region of PRLs were derived by RT-PCR from DU145 and DU145R cells and sequenced using primers described below.
# NB4 cells = assay: NB4 proliferation, MTT assay; type: cell-based, human; details: 12.5-400 μg/ml
# Procedure: The NB4 cell line (Lanotte et al., Blood 77, 1080 (1991)) was a gift from Dr. Dan Lindner of the Cleveland Clinic Foundation. […] and U937 cell lines were purchased from American Type Culture Collection (Rockville, Md.). These human […] cell lines were maintained in RPMI 1640 medium supplemented with 10% fetal calf serum (FCS). For cell proliferation assays, cells were cultured at 37° C. in 10% FCS medium containing various amounts of sodium stibogluconate for 6 days. The cell numbers in the cultures were determined by an MTT assay as described previously in Mosmann, J. Immunol. Methods 65, 55 (1983).
# PRL-3 = target: T1, PRL-3 (Homo sapiens, UniProt O75365); assay: In vitro PTPase assay, recombinant PRL-3; type: biochemical; details: 10 μg/ml, pre-incubation 30 or 60 minutes
# T1 construct: GST (N); made in house; host or cells: DHSa (DH5a) bacteria
# Source text: Sodium stibogluconate, suramin, sodium orthovanadate and GST fusion protein of SHP-1 have been described previously (Pathak et al., J. Imumol. 167, 3391 (2001)). Meglumine antimonate was obtained from Aventis. cDNAs of human PRL-1, PRL-2 and PRL-3 coding region were derived by RT-PCR from H9 cells (Safai, et al., Lancet 1, 1438 (1984)) and inserted in frame into the pGEX vector. cDNA of PRL-1R86 was generated by recombinant DNA technique using PRL-1 cDNA as template following established procedures (Jiao, et al., Mol. Cell. Biol. 16, 6985 (1996)). […]
# In vitro PTPase assays were used to determine the effects of compounds on recombinant PTPases, following established procedures using a synthetic phosphotyrosine peptide or DiFMUP as the substrate (Pathak et al., J. Imumol. 167, 3391 (2001)). […] PTPase activity of individual reactions was measured by adding 100 µL of malachite green solution (UBI) and then quantifying the amounts of free phosphate cleaved by the PTPase from the peptide substrate by spectrometry (OD660 nm). […] Relative PTPase activities were calculated based on the formula: (PTPase activity in the presence of an inhibitory compound/PTPase activity in the absence of the compound)× 100%. […]
# T1 sequence (O75365 whole entry): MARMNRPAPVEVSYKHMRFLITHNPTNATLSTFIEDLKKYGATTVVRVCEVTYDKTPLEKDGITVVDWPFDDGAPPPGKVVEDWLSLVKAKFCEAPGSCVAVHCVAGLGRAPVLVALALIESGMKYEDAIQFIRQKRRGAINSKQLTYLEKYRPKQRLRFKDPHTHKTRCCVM
compound,measurement,setting,value
O.O.O.O.O.O.O.O.O.O=C([O-])[C@@H]1[O][Sb]2([O-])([O][Sb]34([OH])[O][C@H]([C@H](O)CO)[C@H]([O]3)[C@H](C(=O)[O-])[O]4)[O][C@H]([C@H](O)CO)[C@@H]1[O]2.[Na+].[Na+].[Na+] [sodium stibogluconate],growth of DU145R cells with sodium stibogluconate,DU145R cells,growth resistance to sodium stibogluconate
same,proliferation of NB4 cells,NB4 cells,markedly inhibited
same,inactivation of PRL-3,PRL-3,nearly complete inactivation
